# What was measured:
# [1] = test system: HCV replicon genotype 1a; assay: HCV replicon assay, genotype 1a (cell ELISA for NS3/4A); format: cell-based; details: Hepatitis C virus, 96 h, read-out: 1a IC50 (nM)
# Procedure: (§1) Measurement of inhibition by compounds was performed using the HCV replicon system. Several different replicons encoding different HCV genotypes or mutations were used. In addition, potency measurements were made using different formats of the replicon assay, including different ways of measurements and different plating formats. See Jan M. Vrolijk et al., A replicons-based bioassay for the measurement of interferons in patients with chronic hepatitis C, 110 J. Virological Methods 201 (2003); Steven S. Carroll et al., Inhibition of Hepatitis C Virus RNA Replication by 2′-Modified Nucleoside Analogs, 278(14) J. Biological Chemistry 11979 (2003). However, the underlying principles are common to all of these determinations, and are outlined below.
# (§2) Stable neomycin phosphotransferase encoding replicons-harboring cell lines were used, so all cell lines were maintained under G418 selection prior to the assay. Potency was determined using a cell ELISA assay with an antibody to the replicons encoded NS3/4a protease. See Caterina Trozzi et al., In Vitro Selection and Characterization of Hepatitis C Virus Serine Protease Variants Resistant to an Active-Site Peptide Inhibitor, 77(6) J. Virol. 3669 (2003). To initiate an assay, replicon cells were plated in the presence of a dilution series of test compound in the absence of G418. Typically, the assays were performed in a 96-well plate formate for manual operation, or a 384-well plate format for automated assay. Replicon cells and compound were incubated for 96 hours. At the end of the assay, cells were washed free of media and compound, and the cells were then lysed. RNA was quantified indirectly through detection of replicon-encoded NS3/4A protein levels, through an ELISA-based assay with an antibody specific for NS3/4A. IC50 determinations were calculated as a percentage of a DMSO control by fitting the data to a four-parameter fit function and the data obtained is provided in the table below.
# (§3) Data for selected compounds of the present invention was obtained for genotypes 1a and 1b using this method and is provided in the table below: […]
# [2] = test system: HCV replicon genotype 1b; assay: HCV replicon assay, genotype 1b (cell ELISA for NS3/4A); format: cell-based; details: Hepatitis C virus, 96 h, read-out: 1b IC50 (nM)
# Procedure: as §1, §2, §3
compound,measurement,setting,value
"CNC(=O)c1c(-c2ccc(F)cc2)oc2cc(N(C)S(C)(=O)=O)c(-c3cn(C)c(=O)c(-c4cc5c(F)cccc5n4C)n3)cc12 [Compound 21, 5-(6-(4-fluoro-1-methyl-1H-indol-2-yl)-4-methyl-5-oxo-4,5-dihydropyrazin-2-yl)-2-(4-fluorophenyl)-N-methyl-6-(N-methylmethylsulfonamido)benzofuran-3-carboxamide]",IC50,[1],13.7 nM
same,IC50,[2],5.99 nM
"CNC(=O)c1c(-c2ccc(F)cc2)oc2ccc(-n3cc(C(=O)N[C@H](CO)c4ccc(F)cc4)ncc3=O)cc12 [Compound 22, (S)-N-(1-(4-fluorophenyl)-2-hydroxyethyl)-4-(2-(4-fluorophenyl)-3-(methylcarbamoyl)benzofuran-5-yl)-5-oxo-4,5-dihydropyrazine-2-carboxamide]",IC50,[1],354 nM
same,IC50,[2],193 nM
"CNC(=O)c1c(-c2ccc(F)cc2)oc2ccc(-n3cc(C(=O)NCc4ccc(F)cn4)ncc3=O)cc12 [Compound 23, 4-(2-(4-fluorophenyl)-3-(methylcarbamoyl)benzofuran-5-yl)-N-((5-fluoropyridin-2-yl)methyl)-5-oxo-4,5-dihydropyrazine-2-carboxamide]",IC50,[1],492 nM
same,IC50,[2],213 nM
"CNC(=O)c1c(-c2ccc(F)cc2)oc2ccc(-n3cc(C(=O)NC4(c5ccc(F)cc5)CC4)ncc3=O)cc12 [Compound 24, 4-(2-(4-fluorophenyl)-3-(methylcarbamoyl)benzofuran-5-yl)-N-(1-(4-fluorophenyl)cyclopropyl)-5-oxo-4,5-dihydropyrdzine-2-carboxamide]",IC50,[1],80.8 nM
same,IC50,[2],35.5 nM
"CNC(=O)c1c(-c2ccc(F)cc2)oc2ccc(-n3cc(C(=O)NC4(c5ccc6cnccc6n5)CC4)ncc3=O)cc12 [Compound 25, N-(1-(1,6-naphthyridin-2-yl)cyclopropyl)-4-(2-(4-fluorophenyl)-3-(methylcarbamoyl)benzofuran-5-yl)-5-oxo-4,5-dihydropyrazine-2-carboxamide]",IC50,[1],72.5 nM
same,IC50,[2],38.3 nM
"CNC(=O)c1c(-c2ccc(F)cc2)oc2ccc(-n3cc(C(=O)NC4(c5ccccc5)CC4)ncc3=O)cc12 [Compound 26, 4-(2-(4-fluorophenyl)-3-(methylcarbamoyl)benzofuran-5-yl)-5-oxo-N-(1-phenylcyclopropyl)-4,5-dihydropyrazine-2-carboxamide]",IC50,[1],129 nM
same,IC50,[2],29.7 nM
"CNC(=O)c1c(-c2ccc(F)cc2)oc2cc(N(C)S(C)(=O)=O)c(-c3cc(C(=O)N[C@H](C)c4ccc(F)cc4)c(=O)n(C)c3)cc12 [Compound 27, (R)-5-(2-(4-fluorophenyl)-3-(methylcarbamoyl)-6-(N-methylmethylsulfonamido)benzoturan-5-yl)-N-(1-(4-fluorophenyl)ethyl)-1-methyl-2-oxo-1,2-dihydropyridine-3-carboxamide]",IC50,[1],6.87 nM
same,IC50,[2],4.47 nM
"CNC(=O)c1c(-c2ccc(F)cc2)oc2cc(N(C)S(C)(=O)=O)c(-c3cnc(=O)n(-c4ccc5ccccc5c4)c3)cc12 [Compound 28, 2-(4-fluorophenyl)-N-methyl-6-(N-methylmethylsulfonamido)-5-(1-(naphthalen-2-yl)-2-oxo-1,2-dihydropyrimidin-5-yl)benzofuran-3-carboxamide]",IC50,[1],116 nM
same,IC50,[2],18 nM
"CNC(=O)c1c(-c2ccc(F)cc2)oc2cc(N(C)S(C)(=O)=O)c(-c3ccc(=O)n(-c4ccc(F)cc4)c3)cc12 [Compound 29, 2-(4-fluorophenyl)-5-(1-(4-fluorophenyl)-6-oxo-1,6-dihydropyridin-3-yl)-N-methyl-6-(N-methylmethylsulfonamido) benzofuran-3-carboxamide]",IC50,[1],110 nM
same,IC50,[2],31.8 nM
"CNC(=O)c1c(-c2ccc(F)cc2)oc2cc(N(C)S(C)(=O)=O)c(-c3cc4n(c(=O)c3)CCn3c-4cc4c(F)cccc43)cc12 [Compound 30, 5-(12-fluoro-4-oxo-6,7-dihydro-4H-pyrido[2′,1′:3,4]pyrazino[1,2-a]indol-2-yl)-2-(4-fluorophenyl)-N-methyl-6-(N-methylmethylsulfonamido)benzofuran-3-carboxamide]",IC50,[1],3.52 nM
same,IC50,[2],19 nM
"CNC(=O)c1c(-c2ccc(F)cc2)oc2cc(N(C)S(C)(=O)=O)c(-c3cc4n(c(=O)n3)CCn3c-4cc4c(F)cccc43)cc12 [Compound 31, 5-(12-fluoro-4-oxo-6,7-dihydro-4H-pyrimido[6′,1′:3,4]pyrazino[1,2-a]indol-2-yl)-2-(4-fluorophenyl)-N-methyl-6-(N-methylmethylsulfonamido)benzofuran-3-carboxamide]",IC50,[1],3.48 nM
same,IC50,[2],6.95 nM
